Laboratory results from patent publication US20200345637A1, “SUSPENSION COMPOSITIONS OF MULTI-TARGET INHIBITORS” (AIVIVA BIOPHARMA, INC., priority 2018, published 2020).
Values after ≈ are worked out from the molar mass of the structure shown. Values joined by “and” are separate entries in the source; they are usually repeats but may differ in a detail not shown here. Equal entries are not always repeated. Where two headings read alike, the source gives them in different places.

Columns and labels:
[1] = Suspension physical testing: particle size, pH, osmolality, syringeability; format: physicochemical; set-up: API Raw Material PSD D50 / Formulated Suspension Particle size distribution D50 / API Raw Material PSD D90 / Formulated Suspension Particle size distribution D90: unit not given here; settings: for Formulated Suspension Syringeability: needle gauge passed
Text: (§1) Examples 1-3 depict the results of physical testing of some subject formulations.

[2] = systemic; literature or US label; cited from earlier work
[3] = Terminal sterilization and stability assay of formulated suspension; format: physicochemical
Text: as §1

[4] = Aqueous solubility of multi-target inhibitors; format: physicochemical; settings: aqueous (not further specified)
Text: Non-limiting examples of the useful multi-target inhibitors and their physicochemical forms are given in Table 1 with aqueous solubility information.

in vivo [5] = settings: Dutch Belted, rabbit
Description: (§2) This study evaluated the tolerability and dispersion of the formulations of nintedanib and lenvatinib over 42 days in the posterior segment of the eyes. A single 50 μL intravitreal administration of the 1% suspension was administered to Dutch Belted rabbits.

[6] = test system: linear incision wound sites; assay: Intradermal injection along linear incision wounds, histological evaluation; format: in vivo, minipigs; settings: for granulation tissue formation compared to vehicle treated control wounds / presence of myofibroblasts compared to vehicle treated control wounds: 2% suspension (sorafenib 1% suspension); for SMA staining / dermis fibrin / dermis fibroplasia / dermis provisional matrix / epidermis hyperplasia / inflammation / subcutis fibroplasia / subcutis mixed cell infiltrate: microscopic grade over 29 days
Description: The purpose of this study was to evaluate the suspension formulation when administered via intradermal injection with axitinib, nintedanib, sorafenib, and lenvatinib to the dorsal skin along linear incisions of minipigs.
Four male minipigs were dosed. Animals were dosed once via intradermal injection along the edges of each of 10 wound sites for each animal (5 wounds on each side of the dorsum [perpendicular to the spine], approximately 3 cm in length and 3 cm distance from the spine). Axitinib, nintedanib, lenvatinib, and the vehicle control article were administered via eight 0.1 mL intradermal injections around each respective wound site (one injection/cm on both sides of the wound), for a total volume of 0.8 mL/wound site. Sorafenib was administered via the same method at a volume of 0.2 mL/injection, for a total volume of 1.6 mL/wound site. The vehicle control article was Vehicle for Test Articles axitinib, nintedanib, lenvatinib, and sorafenib.
A generalized measure of inflammation, including inflammatory cell infiltrate, fibrin deposition, fibroplasia, epithelial hyperplasia and areas of tissue necrosis were assessed microscopically. […] For test agent treated wounds, all were graded as slight on Day 4, and there was no consistent difference over time as compared to the control group.

in vivo [7] = assay: in vivo; set-up: species or system New Zealand White rabbits; settings: male, New Zealand White, rabbit
Description: Five to seven male New Zealand White rabbits were used per treatment group. Each eye received a 35 μl eyedrop of vehicle, or respective drugs (0.3%) three times daily for 10 days. After the last dose on Day 11, the animals were sacrificed and eyes were enucleated, and plasma and the ocular tissues were collected. Tissue and plasma concentrations of these compounds were measured by LC-MS/MS.

[8] = rabbit, in vivo
Description: (§3) This study evaluated the local tolerance of vehicle, axitinib, pirfenidone, sorafenib and lenvatinib and ocular distribution of axitinib, sorafenib and lenvatinib (0.3% w/w) when administered by topical ocular instillation in the eyes of New Zealand white rabbits (n=6 per group). […] On Dosing Day 5, the animals were sacrificed and eyes were enucleated. Ocular and plasma concentrations of select compounds were measured by LC-MS/MS.

[9] = rabbit, in vivo; for tissue concentrations in the retina and choroid / intravitreal dose remained in the vitreous humor / depot and streaks in vitreous humor by fundus imaging: Dutch Belted
Description: as §2

[10] = test system: choroid neovascularization lesions; assay: Laser-induced choroid neovascularization model in rats; format: in vivo, Brown Norway rats; settings: intravitreal injection 50 μg/eye; fluorescein angiography Day 22
Description: The tolerability, efficacy, and ocular distribution were evaluated in a laser-induced choroid neovascularization model in rats. […] In this 22-day study, effects of local administration of the multi-target (i.e., multi-target kinase) inhibitors nintedanib and lenvatinib were examined on the development of new vessels. Vehicle and positive control groups were included in the study. Female Brown Norway rats were divided into 7 separate treatment groups. On Day 1, laser treatments were performed on all animals using a 520 nm thermal laser to generate a total of three lesions per eye. […] On Day 3, bilateral intravitreal injections of vehicle, 5 μg/eye of rat anti-VEGF antibody, 50 μg/eye of nintedanib, or 50 μg/eye of lenvatinib were performed. On Day 22, fluorescein angiography was performed on all animals, and the lesion sizes/areas were determined using image analysis software (Image J). […] Concentrations of test compounds in ocular tissues and plasma were measured by LCMS-MS after intravitreal or eyedrop administration in rats. […] The eyedrop administration produced higher drug concentrations in the ocular surface, such as conjunctiva, than the intravitreal injection. Three times daily eyedrop administration maintained higher concentrations in plasma than a single intravitreal injection.

in vivo [11] = settings: New Zealand White, rabbit
Description: as §3

SMILES	API Raw Material PSD D50 [1]	API Raw Material PSD D90 [1]	Formulated Suspension Osmolality [1] [mOsm/kg]	Formulated Suspension Particle size distribution D50 [1]	Formulated Suspension Particle size distribution D90 [1]	Formulated Suspension pH [1]	Formulated Suspension Syringeability [1]	terminal plasma half-life in man [2] [h]	Assay (% of labeled claim) of Formulated Suspension, Initial ([3]; Autoclave)	Assay (% of labeled claim) of Formulated Suspension, 4 months (40° C./75% RH) ([3]; Gamma irradiation)	Assay (% of labeled claim) of Formulated Suspension, 6 weeks (40° C./75% RH) ([3]; Gamma irradiation)	Assay (% of labeled claim) of Formulated Suspension, Initial ([3]; Gamma irradiation)	solubility [4] [µg/mL]	concentration at 29 days (in vivo [5]) [ng/mL]	concentration at 42 days (in vivo [5]) [ng/mL]	granulation tissue formation compared to vehicle treated control wounds [6]	presence of myofibroblasts compared to vehicle treated control wounds [6]	SMA staining [6]	dermis fibrin [6]	dermis fibroplasia [6]	also measured
COc1cc2nccc(Oc3ccc(NC(=O)NC4CC4)c(Cl)c3)c2cc1C(N)=O [Lenvatinib]	D50: 164	D90: 346	201	D50: 7	D90: 25	7.6	Pass 27G	30	99.0 % of labeled claim	99.8 % of labeled claim and 100.2 % of labeled claim	99.2 % of labeled claim and 99.8 % of labeled claim	101.4 % of labeled claim and 102.4 % of labeled claim	4 (≈ 9.37 µM)	4.94	3.91	delay in granulation tissue formation	prolonged presence of myofibroblasts	slight	minimal to slight	minimal to slight	dermis provisional matrix [6]: marked to minimal; epidermis hyperplasia [6]: slight to none; inflammation [6]: slight to marked; subcutis fibroplasia [6]: moderate to minimal; subcutis mixed cell infiltrate [6]: slight to severe; concentration at 11 day (after the last dose) (in vivo [7]): 98.5 ng/mL; concentrations in the choroid and retina [8]: significant concentrations; drug concentrations in anterior tissues of conjunctiva, sclera and cornea [8]: high drug concentrations; tissue concentrations in the retina and choroid [9]: over 1 μg/gm; intravitreal dose remained in the vitreous humor ([9]; 29 days): 9-17%; depot and streaks in vitreous humor by fundus imaging ([9]; 42 days): remained present out to Day 42 postdose; intravitreal dose remained in the vitreous humor ([9]; 42 days): 3-9%; lesion sizes relative to positive control, rat anti-VEGF [10]: significantly reduced lesion sizes; lesion sizes relative to vehicle-treated eyes [10]: significantly reduced lesion sizes; concentration at 5 day of dosing (in vivo [11]): 131 ng/mL
COC(=O)c1ccc2c(c1)NC(=O)/C2=C(\Nc1ccc(N(C)C(=O)CN2CCN(C)CC2)cc1)c1ccccc1 [Nintedanib]	D50: 68	D90: 105	207	D50: 22	D90: 35	7.6	Pass 23G	9.5	96.0 % of labeled claim	90.0 % of labeled claim and 97.9 % of labeled claim	98.1 % of labeled claim and 99.7 % of labeled claim	101.8 % of labeled claim and 103.0 % of labeled claim	9 (≈ 16.7 µM)	0.252	0.348	delay in granulation tissue formation	prolonged presence of myofibroblasts	none to moderate	slight to moderate	none to slight	dermis provisional matrix [6]: marked; epidermis hyperplasia [6]: minimal to moderate; inflammation [6]: slight to moderate; subcutis fibroplasia [6]: none to moderate; subcutis mixed cell infiltrate [6]: slight to marked; tissue concentrations in the retina and choroid [9]: higher than 1 μg/gm; depot and streaks in vitreous humor by fundus imaging ([9]; 42 days): remained present out to Day 42 postdose; intravitreal dose remained in the vitreous humor ([9]; 42 days): 4-7%; Concentrations in conjunctival tissue [9]: mostly under quantitation limit; lesion sizes relative to vehicle-treated eyes [10]: significantly reduced lesion sizes
